System: Pseudomonas putida biofilms
Assay: Biofilm eradication (MBEC) test: viable plate counts of biofilms on stainless steel 316 coupons from a CDC Biofilm reactor after two hours of treatment
Type: cell-based
Conditions: 20 mg/L MCA alone, viable biofilm population vs untreated control, 2 h, 28° C.
Method: In this work the efficacy of the agents alone and in combination were determined by measuring the number of viable cells in model biofilms remaining after treatment. The Minimum Biofilm Eradication value (MBEC) is defined as a 95% reduction in the number of viable cells compared to the untreated control.
Dose response studies were performed to determine the Minimum Biofilm Eradication Concentration (MBEC) for monochloramine and PEI alone. The MBEC is defined as the concentration of agent that reduces the viable biofilm population by 95% of the untreated control value as measured by viable plate counts. Experiments were then performed to determine the result of combining the two agents, oxidizing biocide monochloramine and dispersant PEI alone, on biofilm populations. The experiments examined three concentrations of monochloramine with four concentrations of PEI alone.
M9YG media is a simple minimal salt medium supplemented with 500 mg/L glucose and 0.01% yeast extract. The salts composition was intended to mimic a typical cooling tower water composition. […]
Briefly, biofilms were grown on stainless steel 316 coupons in a CDC Biofilm reactor using M9YG minimal salts growth media for a period of twenty-four hours. […] Viable cells released into the fluid were then determined by a plating method.

NCl [MCA, monochloramine]
% reduction: 93.58% | % reduction (listed as monochloramine): greater than 90%

Source: US11104593B2, “Compositions exhibiting synergy in biofilm control” (SOLENIS TECHNOLOGIES, L.P., priority 2017, dated 2021)
